From patent US7445891B2, “Nucleic acid triggered catalytic drug and probe release” (priority 2001, dated 2008)

Tests used:
[1] = Imidazole catalyzed hydrolysis of esters (imidazole alone); assay type: physicochemical; details: 20° C.
Protocol: For comparison purposes, the rate constant kIm for the imidazole catalyzed hydrolysis of the various esters were determined in imidazole buffer at pH 7.0, 0.5 M NaCl at 20° C. as previously described. The imidazole buffers were prepared in 0.5 M NaCl, and adjusted to pH 7 by addition of 1 M HCl. […] The pseudo first-order rate constant for each concentration of imidazole was obtained by linear least squares fitting of In(A¥-A) or In(F¥-F) vs. time. The rate constants were then plotted against total imidazole concentration to get ko, the first order rate constant for the uncatalyzed hydrolysis reaction, and kIm, the second-order rate constant for catalysis by imidazole buffer.

[2] = Hydrolysis of esters in human serum
Protocol: In a typical run, 3 mL of coumarin ester solution (7 mM in acetonitrile) was added to 400 mL of Human serum, pH 8.3 (Innovative Research Inc.) in cuvette. The cuvette was capped, inverted several times for thorough mixing, placed in a cell block and recording was begun.

[3] = system: imidazole hairpin 3a; test: Fluorescein release from fluorescein dipivalate ODNs by imidazole hairpin; assay type: biochemical; details: 10 mM ODN, 5 mM hairpin 3a, 0.1 M phosphate pH 7.0, 20° C.; relative to 7a
Source text: FIG. 11. […] For comparison, the release of fluorescein from the fluorescein tetramer 7aby imidazole at 0.1 M imidazole alone is also shown.
Because of the strong fluorescence and widespread use of fluorescein as a fluorescent probe, the rate of fluorescein release by imidazole catalyzed hydrolysis of diacetyl fluorescein was investigated. Diacetylated fluoresceins are non-fluorescent, but upon hydrolysis of the acyl groups become highly fluorescent. Attempts to attach the N-hydroxysuccinimide derivative of diacetylcarboxyfluorescein via amide bond formation with the 3′-amino linked oligodeoxynucleotide 5 (FIG. 4) failed due to the high pH required for the reaction which led to the premature hydrolysis of the acetate groups. Attempts to conjugate 5-chloromethyl fluorescein diacetate with a 3′-phosphorothioate labeled ODN also failed at pH 7. […] The TMs of 7a-cwere estimated from thermodynamic parameters to be -20, 19, and 41° C. under the conditions of the experiment and have equilibrium dissociation constants of 3.4 mM, 8.1 mM, and 14 nM.

[4] = system: hairpin enzyme 3a; test: Two component hairpin system: p-nitrophenolate / 7-hydroxycoumarin release from 8-mer prodrugs; assay type: biochemical; details: for Enhancement: (kcat/KM)/kIm
Protocol: Initial velocities of the reaction, obtained for each substrate concentration, were fitted to the Michaelis-Menten equation by a non-linear least squares method using KaleidaGraph software. The inhibition constant KI was determined in the presence of 25 mM 7d ([…]) in 10 mM sodium phosphate buffer pH 7.0 containing 1.0 M NaCl by the plotting 1/v vs. 1/[S] and calculating KI from the slope of the line according following equation:
(§1) [formula] where v is the velocity of the reaction, Vmax is the maximum velocity, KM is the substrate concentration at half maximal reaction rate, [I] is the inhibitor concentration, and [S] is the substrate concentration. Kinetics of p-nitrophenol and 7-hydroxycoumarin Release by Imidazole Alone

[5] = system: E. coil 5S rRNA; test: Hydroxycoumarin release from PNA constructs on 5S rRNA trigger; assay type: biochemical, E. coli; details: unoptimized test
Source text: FIG. 16. A series of PNA constructs was synthesized to target one of the hairpin loops of commercially available E. coil 5S rRNA (SEQ ID NO:11) as the nucleic acid trigger. This rRNA has been thoroughly characterized by enzymatic and chemical probes, and is therefore a suitable initial model for studying and optimizing various catalytic drug releasing motifs in folded […].
FIG. 19. […] In contrast, there was no difference in the rate of release of hydroxycoumarin from the 6-mer conjugate in the presence or absence of the histidine, or the catalytic component. (not shown).

[6] = system: 15-mer catalytic component 3b and 23-mer template 4; test: Three component system: release from 8-mer prodrug with imidazole 15-mer and triggering 23-mer; assay type: biochemical
Protocol: For typical assays, pNP-8-mer 1 (SEQ ID NO:1) and Im-15-mer 2 were incubated in 10 mM sodium phosphate, pH 7.0, which contained 0.1 M or 1.0 M NaCl in an ultra-micro ([…]) UV cell (Varian). The reaction temperature was maintained at 20° C., and the production of p-nitrophenolate was monitored by UV absorbance at 400 nm (e400=6.26′10^3). Initial velocities of the reaction, obtained for each substrate concentration, were fitted to the Michaelis-Menten equation by a non-linear least squares method with KaleidaGraph software. The inhibition constant KI was determined in the presence of 20 mM d([…]) in 10 mM sodium phosphate buffer pH 7.0 containing 1.0 M NaCl by the plotting 1/v vs. 1/[S] and calculating KI from the slope of the line according following equation:
[formula] where v is the velocity of the reaction, Vmax is the maximum velocity, KM is the substrate concentration at half maximal reaction rate, [I] is the inhibitor concentration, and [S] is the substrate concentration. For comparison purposes, the reaction rate constant kIm for the imidazole catalyzed hydrolysis of N-maleoyl-D-valine p-nitrophenyl ester 8 was determined in imidazole buffer at pH 7.0, 1.0 M NaCl at 20° C. as previously described. […]
as §1

[7] = 1 M NaCl; cited from earlier work

`CC(C)[C@H](C(=O)Oc1ccc([N+](=O)[O-])cc1)N1C(=O)C=CC1=O` [11a, N-maleoyl-D-valine p-nitrophenyl ester] gave a kIm ([1]; imidazole buffer pH 7.0, 1.0 M NaCl) of 0.014 M⁻¹ s⁻¹.
For N-maleoyl-b-alanine-coumarin ester [9c], the “stability to hydrolysis by human serum, compared” value [2] was “more stable than the CBZ-glycine ester, but much less stable than the maleoyl-D-valine esters”.
For “7c: 8-mer ODN derivatized with bis-pivaloyl fluorescein (SEQ ID NO:9) (TCCTGTCA; DNA, backbone not given here; further chemistry not fully specified)”, the “relative initial rates of fluorescein release” value [3] was 493.
Work on `CC(=O)Oc1ccc([N+](=O)[O-])cc1` [p-nitrophenylacetate, reference compound] yielded a klm ([1]; imidazole catalyzed rate constant, pH 7, 0.5 M NaCl) of 0.13 M⁻¹ s⁻¹.
In the case of “15a (X = G): matched b-alanine p-nitrophenyl ester 8-mer ODN prodrug (SEQ ID NO:10) (TCCTNTCA; beta-alanine p-nitrophenyl ester prodrug, chemistry not fully specified)”, the “time in which four turnovers are complete” value ([4]; 20 mM prodrug, 5 mM hairpin 3a, 1 M NaCl, pH 7, 20° C.) is reported as “about 4 h”, the kcat ([4]; 1.0 M NaCl, 10 mM phosphate buffer pH 7.0, 20° C., listed as 15a) is reported as 0.0029 s⁻¹ and the Enhancement ([4]; 0.1 M NaCl) is reported as 281. For the same compound, the Enhancement ([4]; 1.0 M NaCl) was 446, the “koff needed to account for observed KM” value ([4]; assuming on rate 10^6 M^−1s^−1) was 50 s⁻¹ and the “rate enhancement of ester hydrolysis relative to imidazole alone” value ([4]; kcat/KM compared with kIm) was 446 fold.
With “7a: 4-mer ODN derivatized with bis-pivaloyl fluorescein (SEQ ID NO:7) (GTCA; DNA, backbone not given here; further chemistry not fully specified)” the “relative initial rates of fluorescein release” value [3] was 1.
In the case of “8-mer PNA construct: hydroxycoumarin-bearing 8-mer PNA (SEQ ID NO:15) targeting E. coli 5S rRNA hairpin loop (CTGGGGTA; all peptide nucleic acid (PNA); hydroxycoumarin attached, position not given here)”, the “rate of hydroxycoumarin release, all three components vs absence of the entire catalytic PNA” value [5] is reported as 4 fold and the “rate of hydroxycoumarin release, all three components vs all three minus the histidine” value [5] is reported as 2 fold.
With “15a (SEQ ID NO:10) (X=C): mismatched b-alanine p-nitrophenyl ester 8-mer prodrug, G to C transversion (DNA TCCTNTCA; b-alanine p-nitrophenyl ester prodrug, chemistry not fully specified)” the “difference in initial rates of p-nitrophenolate release, matched 15a (X=G) vs single CC mismatch” value ([4]; 1 M NaCl) was 11 fold and the “increase in Kd of mismatch substrate needed to account for rate difference” value ([4]; rates proportional to (Kd+[S])^−1) was 15 fold.
With “16a: D-valine p-nitrophenyl ester linked to the 3'-end of 8-mer ODN d(TCCTGTCA) (DNA, backbone not given here; further chemistry not fully specified)” the “drop in kcat relative to b-alanine ester 15a” value ([4]; 1.0 M NaCl) was 8.3 fold, the Enhancement ([4]; 1.0 M NaCl) was 429 and the “p-nitrophenol formed during the course of the reaction” value ([6]; 5 mM catalytic ODN and 5 mM triggering ODN) was “about 15 mM”. The “release more efficient with fully matched than mismatched template” value ([6]; 0.1 M NaCl, 20° C.) was 7.5 fold, the “difference in rate, matched vs mismatched template” value ([6]; 1 M NaCl) was 1.4 fold and the Vmax ([6]; 1 M NaCl, pH 7, 20° C.) was 0.09 mM/min. For the same compound, the kcat ([6]; 1 M NaCl, pH 7, 20° C.) was 0.0003 s⁻¹, the “initial rate of p-nitrophenol release” value ([6]; 15-mer lacking an appended imidazole group, 1 M NaCl, pH 7, 20° C.) was 0.0008 mM/min and the “rate acceleration over hydrolysis catalyzed by free imidazole” value ([6]; (kcat/KM)/kIm) was 976 fold. The Enhancement ([6]; (kcat/KM)/kIm, 1.0 M NaCl) was 974, the “initial rate of p-nitrophenol release” value ([6]; absence of the 23-mer or Im-15-mer, 1 M NaCl, pH 7, 20° C.) was 0.002 mM/min and the “initial rate of p-nitrophenol release” value ([6]; all three components, 1 M NaCl, pH 7, 20° C.) was 0.057 mM/min. For the same compound, the “initial rate of release of p-nitrophenol” value ([6]; fully matched 23-mer, 0.1 M NaCl, 20° C.) was 0.028 mM/min and the “initial rate of release of p-nitrophenol” value ([6]; mismatched 23-mer (T at position 20 replaced with C), 0.1 M NaCl, 20° C.) was 0.0037 mM/min.
In the case of “d(GGAGCTTGCTCC): hairpin ODN of the literature (SEQ ID NO:18) (DNA, backbone not given here; hairpin)”, the TM reported [7] is listed as 71 °C.
